The source of these data is patent publication US7115632B1, “Sulfonyl aryl or heteroaryl hydroxamic acid compounds” (priority 1999, dated 2006).

Molecules are shown by their SMILES. Counter-ions that a name gives are not always drawn. A value given as a limit tells only on which side of the number the result lay.

Data set [1] concerns the target MMP-3 (Homo sapiens, UniProt P08254). The experiment in a line: In vitro metalloprotease inhibition, fluorogenic MCA peptide substrate. The format is biochemical. The note with it: Inhibition Table B.
The target of data set [2] is T1, MMP-13 (Homo sapiens, UniProt P45452).
T1 construct: made in house; host or cells: insect cells, baculovirus expression
The description is as above. It is filed as biochemical. The following applies: Inhibition Table B.

For data set [3], the target named is T2, MMP-9 (Homo sapiens, UniProt P14780).
T2 construct: made in house; host or cells: transfected HT-1080 cells (provided by Dr. Harold Welgus)
T2 sequence (P14780 107-707 limits assumed): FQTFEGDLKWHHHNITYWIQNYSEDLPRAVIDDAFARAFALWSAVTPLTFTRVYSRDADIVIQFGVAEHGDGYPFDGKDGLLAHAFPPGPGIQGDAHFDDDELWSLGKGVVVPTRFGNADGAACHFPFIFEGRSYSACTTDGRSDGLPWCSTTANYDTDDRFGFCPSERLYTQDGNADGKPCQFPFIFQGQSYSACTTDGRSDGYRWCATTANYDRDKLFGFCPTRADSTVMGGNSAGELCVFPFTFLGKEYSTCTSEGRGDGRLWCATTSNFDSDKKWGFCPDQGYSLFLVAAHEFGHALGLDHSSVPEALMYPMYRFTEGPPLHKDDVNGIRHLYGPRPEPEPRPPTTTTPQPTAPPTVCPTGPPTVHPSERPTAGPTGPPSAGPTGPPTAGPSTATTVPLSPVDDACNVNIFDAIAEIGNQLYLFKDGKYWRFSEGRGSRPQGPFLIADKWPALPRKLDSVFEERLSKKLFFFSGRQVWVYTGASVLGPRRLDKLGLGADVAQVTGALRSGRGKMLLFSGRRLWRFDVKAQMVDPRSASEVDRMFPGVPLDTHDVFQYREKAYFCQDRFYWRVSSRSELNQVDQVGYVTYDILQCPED
Described as above. It is filed as biochemical. The note with it: Inhibition Table B. The method, then: (§1) Briefly, 4-aminophenylmercuric acetate (APMA) or trypsin-activated MMPs were incubated with various concentrations of the inhibitor compound at room temperature for 5 minutes.
MMP-1 expressed in transfected HT-1080 cells was provided by Dr. Harold Welgus of Washington University, St. Louis, Mo. The enzyme was also activated using APMA and was then purified over a hydroxamic acid column. Dr. Welgus also provided transfected HT-1080 cells that expressed MMP-9. Transfected cells that expressed MMP-2 were provided by Dr. Gregory Goldberg, also of Washington University. Further specifics for preparation and use of these enzymes can be found in the scientific literature describing these enzymes. See, for example, Enzyme Nomenclature, Academic Press, San Diego, Calif. (1992) and the citations therein, and Frije et al., J. Biol. Chem., 26(24): 16766–16773 (1994).
(§2) MCA-ProLeuGlyLeuDpaAlaArgNH2, wherein MCA is methoxycoumarin and Dpa is 3-(2,4-dinitrophenyl)-L-2,3-diaminopropionyl alanine.
(§3) The buffer used for assays contained 100 mM Tris-HCl, 100 mM NaCl, 10 mM CaCl2 and 0.05 percent polyethyleneglycol (23) lauryl ether at a pH value of 7.5.
(§4) The ID50 values were calculated from those values.

In data set [4] the target is MT1-MMP (Homo sapiens, UniProt P50281). Described as above. The following applies: Inhibition Table B. The format is biochemical. The protocol: as §1, §2, §3, §4
Data set [5] has as its target MMP-8 (Homo sapiens, UniProt P22894). The data set is described as above. The format is biochemical. The following applies: Inhibition Table B. The protocol:
as §1, §2, §3, §4

Data set [6] deals with T3, MMP-1 (Homo sapiens, UniProt P03956).
T3 construct: made in house; host or cells: transfected HT-1080 cells (provided by Dr. Harold Welgus, Washington University)
T3 sequence (P03956 100-469): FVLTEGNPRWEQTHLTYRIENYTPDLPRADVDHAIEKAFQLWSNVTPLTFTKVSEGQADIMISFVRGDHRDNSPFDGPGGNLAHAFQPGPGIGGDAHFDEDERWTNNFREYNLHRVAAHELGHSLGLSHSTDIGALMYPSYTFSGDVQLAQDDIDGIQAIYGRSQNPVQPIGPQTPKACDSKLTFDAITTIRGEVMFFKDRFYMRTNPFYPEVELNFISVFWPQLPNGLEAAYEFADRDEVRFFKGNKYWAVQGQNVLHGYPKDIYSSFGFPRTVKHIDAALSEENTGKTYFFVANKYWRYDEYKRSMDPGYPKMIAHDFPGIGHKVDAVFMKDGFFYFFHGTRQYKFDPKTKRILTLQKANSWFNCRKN
Described as above. The format is biochemical. The following applies: Inhibition Table B.
Description: (§5) The expressed enzyme was purified first over a heparin agarose column and then over a chelating zinc chloride column. The proenzyme was activated by APMA for use in the assay.

Data set [7] has as its target T4, MMP-2 (Homo sapiens, UniProt P08253).
T4 construct: made in house; provided by Dr. Gregory Goldberg, Washington University
T4 sequence (P08253 110-660): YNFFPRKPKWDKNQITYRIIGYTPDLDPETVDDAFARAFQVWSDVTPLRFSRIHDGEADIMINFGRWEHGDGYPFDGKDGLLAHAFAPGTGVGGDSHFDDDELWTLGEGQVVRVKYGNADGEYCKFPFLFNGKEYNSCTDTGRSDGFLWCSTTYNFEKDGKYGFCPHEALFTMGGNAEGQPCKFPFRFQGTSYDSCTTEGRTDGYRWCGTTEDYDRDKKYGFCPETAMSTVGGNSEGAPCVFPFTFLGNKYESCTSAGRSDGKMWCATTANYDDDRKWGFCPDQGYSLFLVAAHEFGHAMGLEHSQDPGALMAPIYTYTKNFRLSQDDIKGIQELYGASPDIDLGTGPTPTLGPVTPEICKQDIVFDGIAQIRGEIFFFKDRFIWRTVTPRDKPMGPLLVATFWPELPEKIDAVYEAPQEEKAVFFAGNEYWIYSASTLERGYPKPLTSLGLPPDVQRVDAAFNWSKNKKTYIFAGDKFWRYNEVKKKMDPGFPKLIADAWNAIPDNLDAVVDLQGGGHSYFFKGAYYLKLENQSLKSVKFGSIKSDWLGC
The description is as above. The format is biochemical. The note with it: Inhibition Table B.
Description: as §5

The test system of data set [8] is solid tumor cancers (colorectal, pancreatic, ovarian, prostate). The following applies: cited from earlier work.

Chain of MMP-8 (P22894 101-467, species assumed): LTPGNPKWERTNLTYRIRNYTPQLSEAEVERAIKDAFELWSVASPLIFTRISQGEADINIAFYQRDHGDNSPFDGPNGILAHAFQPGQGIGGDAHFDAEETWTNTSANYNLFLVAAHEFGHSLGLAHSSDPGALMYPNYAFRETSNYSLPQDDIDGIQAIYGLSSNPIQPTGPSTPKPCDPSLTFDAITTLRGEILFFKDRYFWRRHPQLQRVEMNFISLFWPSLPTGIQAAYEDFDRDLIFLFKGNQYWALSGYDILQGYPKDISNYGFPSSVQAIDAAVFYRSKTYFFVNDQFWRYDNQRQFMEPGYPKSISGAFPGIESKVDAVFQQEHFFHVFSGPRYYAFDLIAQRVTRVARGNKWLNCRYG
Chain of MMP-3 (P08254 100-477, species assumed): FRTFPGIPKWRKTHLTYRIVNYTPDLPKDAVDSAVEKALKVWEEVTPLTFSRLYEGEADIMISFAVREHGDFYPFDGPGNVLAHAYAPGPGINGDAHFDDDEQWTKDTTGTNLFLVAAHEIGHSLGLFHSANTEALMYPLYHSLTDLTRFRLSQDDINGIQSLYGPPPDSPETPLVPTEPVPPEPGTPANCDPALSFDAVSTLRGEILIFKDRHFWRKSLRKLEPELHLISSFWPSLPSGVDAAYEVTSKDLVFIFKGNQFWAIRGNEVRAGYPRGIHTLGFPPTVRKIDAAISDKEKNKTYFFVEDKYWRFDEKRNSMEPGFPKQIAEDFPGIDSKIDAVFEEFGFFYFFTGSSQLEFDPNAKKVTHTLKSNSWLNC

One may read the IC50 as the midpoint of a concentration-inhibition curve. A high value points to a need for much substance. As to `COc1ccc(S(=O)(=O)N2CCN(c3ccc(C(F)(F)F)cc3)CC2)c(C(=O)NO)c1OC` [Example 26, N-Hydroxy-2,3-dimethoxy-6-[[4-[4-(trifluoromethyl)phenyl]-1-piperazinyl]sulfonyl]benzamide], the IC50 was 1750 nM in data set [1]; 40 nM in data set [2]; 970 nM in data set [3]; 1920 nM in data set [4]; 37.2 nM in data set [5]; above 10000 nM in data set [6]. This compound also yielded an IC50 in data set [7] of 6.5 nM.

As to `COc1ccc(N2CCN(S(=O)(=O)c3ccc(OC)c(OC)c3C(=O)NO)CC2)cc1` [Example 41, N-Hydroxy-2,3-dimethoxy-6-[[4-(4-methoxyphenyl)-1-piperazinyl]sulfonyl]benzamide, monohydrochloride], the IC50 in data set [1] is 8000 nM; in data set [2], 100 nM; in data set [3], 470 nM; in data set [4], 4000 nM; in data set [5], 120 nM; in data set [6] it was above 10000 nM. The IC50 in data set [7] was found to be 6 nM.

Take `COc1ccc(S(=O)(=O)N2CCC(Oc3ccc(-c4cccc(C(F)(F)F)c4)cc3)CC2)c(C(=O)NO)c1OC` [Example 27, N-Hydroxyl-2,3-dimethoxy-6-[[4-[[3′-(trifluoromethyl)[1,1′-biphenyl]-4-yl]oxy]-1-piperidinyl]sulfonyl]benzamide]: the IC50 was 300 nM in data set [1]; 3 nM in data set [2]; 520 nM in data set [3]; 690 nM in data set [4]; 210 nM in data set [5]; above 10000 nM in data set [6]. In data set [7], this compound registered a half-maximal inhibitory concentration (IC50) of 3.3 nM.

For the compound `CCCCOc1ccc(OC2CCN(S(=O)(=O)c3ccc(OC)c(OC)c3C(=O)NO)CC2)cc1` [Example 54, 6-[[4-(4-Butoxyphenoxy)-1-piperidinyl]sulfonyl]-N-hydroxy-2,3-dimethoxybenzamide], the IC50 in data set [1] is 31.6 nM; in data set [2] it was 1.6 nM; in data set [3], 2 nM; in data set [4], 200 nM; in data set [5], 70 nM; in data set [6] it was above 10000 nM. The compound also showed a half-inhibitory concentration (IC50) in data set [7] of 0.8 nM.

As to `COc1ccc(S(=O)(=O)N2CCC(Oc3ccc4c(c3)OCO4)CC2)c(C(=O)NO)c1OC` [Example 50, 6-[[4-(1,3-Benzodioxole-5-yloxy)-1-piperinyl]sulfonyl]-N-hydroxy-2,3-dimethoxybenzamide], the IC50 was 1300 nM in data set [1]; 18.6 nM in data set [2]; 9 nM in data set [3]; 270 nM in data set [4]; 12.2 nM in data set [5]; above 10000 nM in data set [6]. For the same compound, the IC50 in data set [7] was 1.1 nM.

In the case of `COc1ccc(S(=O)(=O)N2CCC(Sc3ccccc3)CC2)c(C(=O)NO)c1OC` [Example 24, N-Hydroxy-2,3-dimethoxy-6-[[4-(phenylthio)-1-piperidinyl]sulfonyl]benzamide], the IC50 in data set [1] is 400 nM; in data set [2], 3 nM; in data set [3] it was 10 nM; in data set [4] it was 25.4 nM; in data set [5], 10.7 nM; in data set [6], above 10000 nM. Further, the IC50 in data set [7] amounted to 0.9 nM.

For the compound `CNC(=O)[C@@H](NC(=O)[C@H](CC(C)C)[C@H](O)C(=O)NO)C(C)(C)C` [marimastat, Marimastat], the “most common drug-related toxicity” value in data set [8] (clinical trials, patients) is “musculoskeletal pain and stiffness”. Moreover, in data set [8] (patients with advanced, rapidly progressive, treatment-refractory solid tumor cancers), the “rise of cancer-specific antigens (surrogate markers for biological activity)” value is “dose-related reduction in the rise of cancer-specific antigens”.

With `COc1ccc(OC2CCN(S(=O)(=O)c3ccc(OC)c(OC)c3C(=O)NO)CC2)cc1` [Example 45], the IC50 is 900 nM in data set [1]; 13.9 nM in data set [2]; 3 nM in data set [3]; 300 nM in data set [4]; 11.4 nM in data set [5]; above 10000 nM in data set [6]. Further, the concentration for half-maximal inhibition (IC50) in data set [7] was found to be 1.8 nM.
